One experiment concerns Mycosphaerella arachidis. The experiment is described as follows: Mycosphaerella arachidis syn. Cercospora arachidicola (brown leaf spot of peanut), liquid culture growth inhibition. The format is cell-based. The note with it: nutrient broth (PDB), approximately 5-6 days, photometric at 620 nm, compared to untreated control. The method, then: Conidia of the fungus from cryogenic storage were directly mixed into nutrient broth (PDB potato dextrose broth). A DMSO solution of the test compounds was placed into a microtiter plate (96-well format) and the nutrient broth containing the fungal spores was added to it. The test plates were incubated at 24° C. and the inhibition of growth was determined photometrically after approximately 5-6 […] at 620 nm.

The next experiment concerns Pyricularia oryzae. In words: whole plant or invertebrate. The format is in vivo. Conditions: foliar, 120 h, read-out: control of Pyricularia oryzae.
The next experiment has as its system Alternaria solani. The experiment is described as follows: Alternaria solani (early blight of tomatoes), tomato leaf disks. The format is in vivo. The note with it: foliar, inoculated 2 days after application, compared to untreated control. The protocol:
Alternaria solani (Early Blight of Tomatoes) Tomato leaf disks are placed on agar in multiwell plates (24-well format) and sprayed with the formulated test compound diluted in water. The leaf disks are inoculated with a spore suspension of the fungus 2 days after application. The inoculated leaf disks are incubated at 23° C./21° C.

Experiment [1] has as its system Erysiphe graminis f. sp. tritici. The experiment is described as follows: Erysiphe graminis f. sp. tritici (wheat powdery mildew), wheat leaf segments, preventive. The format is in vivo. Conditions: Blumeria graminis, foliar, 168 h, 7 dpi, compared to untreated control. The method, then: Wheat leaf segments are placed on agar in multiwell plates (24-well format) and sprayed with test solutions. After drying, the leaf disks are inoculated with spores of the fungus. After appropriate incubation the activity of a compound is assessed 7 dpi (days post inoculation) as preventive fungicidal activity.

Experiment [2] concerns Puccinia recondita f. sp. tritici. In words: Puccinia recondita (brown rust), preventative, wheat leaf segments. The format is in vivo. The note with it: foliar, 192 h, 8 dpi, compared to untreated control. The method, then:
Wheat leaf segments are placed on agar in multiwell plates (24-well format) and sprayed with test solutions. After drying, the leaf segments are inoculated with a spore suspension of the fungus. After appropriate incubation the activity of a compound is assessed 8 dpi (days after inoculation) as preventative fungicidal activity.

A further experiment deals with Glomerella lagenarium. In words: Glomerella lagenarium syn. Colletotrichum lagenarium (anthracnose of cucurbits), liquid culture growth inhibition. The note with it: Colletotrichum orbiculare, nutrient broth (PDB), 72 hrs, photometric at 620 nm, compared to untreated control. The format is cell-based. The protocol:
Glomerella lagenarium Syn. Colletotrichum lagenarium (Anthracnose of Cucurbits): Conidia of the fungus from cryogenic storage were directly mixed into nutrient broth (PDB potato dextrose broth). A DMSO solution of the test compounds was placed into a microtiter plate (96-well format) and the nutrient broth containing the fungal spores was added to it. The test plates were incubated at 24° C. and the inhibition of growth was determined photometrically after 72 hrs at 620 nm. […]

The subject of a further experiment is Monographella nivalis. The experiment is described as follows: Monographella nivalis syn. Microdochium nivale (snow mould, foot rot of cereals), liquid culture growth inhibition. The format is cell-based. The note with it: nutrient broth (PDB), 72 hrs, photometric at 620 nm, compared to untreated control. The protocol: Conidia of the fungus from cryogenic storage were directly mixed into nutrient broth (PDB potato dextrose broth). A DMSO solution of the test compounds was placed into a microtiter plate (96-well format) and the nutrient broth containing the fungal spores was added to it. The test plates were incubated at 24° C. and the inhibition of growth was determined photometrically after 72 hrs at 620 nm. […] Cercospora arachidicola (Brown Leaf Spot of Peanut): […]

The subject of another experiment is Phytophthora infestans. The experiment is described as follows: whole plant or invertebrate. The format is in vivo. The note with it: in Solanum lycopersicum, foliar, 96 h, read-out: control of Phytophthora infestans.
In the next experiment the test system is Plasmopara viticola. The experiment is described as follows: Plasmopara viticola (downy mildew of grapevine), grape vine leaf disks, preventive. The format is in vivo. The note with it: foliar, 168 h, 7 dpi, compared to untreated control. The method, then: Grape vine leaf disks are placed on agar in multiwell plates (24-well format) and sprayed with test solutions. After drying, the leaf disks are inoculated with a spore suspension of the fungus. After appropriate incubation the activity of a compound is assessed 7 dpi (days after inoculation) as preventive fungicidal activity.

Experiment [3] has as its system Puccinia recondita f. sp. tritici. The experiment is described as follows: Puccinia recondita (brown rust), curative, wheat leaf segments. The format is in vivo. The note with it: foliar, 192 h, sprayed 1 day after inoculation, 8 dpi, compared to untreated control. The method, then:
Wheat leaf segments are placed on agar in multiwell plates (24-well format). The leaf segments are inoculated with a spore suspension of the fungus and sprayed with test solutions 1 day after inoculation. After appropriate incubation the activity of a compound is assessed 8 dpi (days after inoculation) as curative fungicidal activity.

The test system of experiment [4] is Phakopsora pachyrhizi. The experiment is described as follows: Phakopsora pachyrhizi (soybean rust), soybean leaf disks, preventive. The format is in vivo. Conditions: foliar, 288 h, approx. 12 dpi, compared to untreated control. The protocol: Soybean leaf disks are placed on agar in multiwell plates (24-well format) and sprayed with test solutions. After drying, the leaf disks are inoculated with a spore suspension of the fungus. After appropriate incubation the activity of a compound is assessed approx. 12 dpi (days after inoculation) as preventive fungicidal activity.

For another experiment, the system named is Puccinia recondita. In words: Example C: comparative activity against Puccinia recondita (brown rust), curative, wheat leaf segments. The format is in vivo. The note with it: 8 dpi. The protocol:
Method; Wheat leaf segments are placed on agar in multiwell plates (24-well format). The leaf segments are inoculated with a spore suspension of the fungus and sprayed with test solutions 1 day after inoculation. After appropriate incubation the activity of a compound is assessed 8 dpi (days after inoculation) as curative fungicidal activity. The data are presented as the percentage of disease control of each compound for the biological tests and testing rates described below in table H.

Experiment [5] has as its system Phakopsora pachyrhizi. The experiment is described as follows: Example D: comparative activity against Phakopsora pachyrhizi (soybean rust), soybean plants sprayed, leaf disks cut from treated plants. The format is in vivo. The note with it: 0.1% OCHIMA, leaf disks cut one day after application, approx. 12 dpi. The method, then: Method: Soybean plants are sprayed in a spray chamber with formulated DMSO compound solutions which are diluted to the appropriate concentration with 0.1% […] (adjuvant comprising polyethoxylated sorbitol hexaoleate and tris(2-ethylhexyl) phosphate) just before spraying. Leaf disks are cut from treated plants and placed on agar into 24-well plates one day after application. After, the leaf disks are inoculated with a spore suspension of the fungus. After appropriate incubation the activity of a compound is assessed approx. 12 dpi (days after inoculation) as preventive fungicidal activity. The data are presented as the percentage of disease control of each compound for the biological tests and testing rates described below in Table 1.

The test system of experiment [6] is Phakopsora pachyrhizi. In words: Example E: comparative activity against Phakopsora pachyrhizi (soybean rust), soybean leaf disks sprayed. The format is in vivo. The note with it: 0.025% Tween20, approx. 12 dpi. The protocol:
Method: Compounds to be tested are prepared as DMSO solutions which are diluted to the appropriate concentration with 0.025% Tween20 just before spraying. Soybean leaf disks are placed on agar in multiwell plates (24-well format) and sprayed with test solutions. After drying, the leaf disks are inoculated with a spore suspension of the fungus. After appropriate incubation the activity of a compound is assessed approx. 12 dpi (days after inoculation) as preventive fungicidal activity. The data are presented as the percentage of disease control of each compound for the biological tests and testing rates described below in Table J.

`CO/C=C(\Oc1cc(C2CCCCC2)c(F)cc1C)C(=O)OC` [E.16, methyl (Z)-2-(5-cyclohexy1-4-fluoro-2-methyl-phenoxy)-3-methoxy-prop-2-enoate]: the inhibition of growth at 20 ppm with Mycosphaerella arachidis, in the experiment on Glomerella lagenarium and in the experiment on Monographella nivalis was at least 80% in each case. In addition, the pest or weed control at 200 ppm (with Pyricularia oryzae; in the experiment on Alternaria solani; in experiment [1]; in experiment [2]; with Phytophthora infestans; in the experiment on Plasmopara viticola) was at least 80% each time. In experiment [3], the pest or weed control at 200 ppm is at least 80%.

Turning to `CO/C=C(\Oc1cc(C2CC2C2CC2)ccc1C)C(=O)OC` (stereo not shown) [E.7, methyl (Z)-2-[5-(2-cyclopropylcyclopropyl)-2-methyl-phenoxy]-3-methoxy-prop-2-enoate], the inhibition of growth at 20 ppm with Mycosphaerella arachidis, in the experiment on Glomerella lagenarium and with Monographella nivalis was at least 80% each time. Moreover, the pest or weed control at 200 ppm (with Pyricularia oryzae; in experiment [1]; in experiment [2]; in the experiment with Phytophthora infestans; in the experiment on Plasmopara viticola; in experiment [3]) was at least 80% throughout.

As for `CO/C=C(\Oc1cc(C2CCC(C(F)F)CC2)ccc1C)C(=O)OC` (stereo not shown) [E.22, methyl (Z)-2-[5-[4-(difluoromethyl)cyclohexyl]-2-methyl-phenoxy]-3-methoxy-prop-2-enoate], the inhibition of growth at 20 ppm with Mycosphaerella arachidis, in the experiment on Glomerella lagenarium and in the experiment on Monographella nivalis was at least 80% each time. The pest or weed control at 200 ppm (with Alternaria solani; in experiment [1]; in experiment [2]; with Phytophthora infestans; in the experiment on Plasmopara viticola) was at least 80% in each case.

In the case of `CO/C=C(\Oc1cc(C2CCCCC2)ccc1Cl)C(=O)OC` [E.9, methyl (Z)-2-(2-chloro-5-cyclohexyl-phenoxy)-3-methoxy-prop-2-enoate], the inhibition of growth at 20 ppm with Mycosphaerella arachidis, in the experiment with Glomerella lagenarium and with Monographella nivalis was at least 80% in each case. Moreover, the pest or weed control at 200 ppm (in experiment [1]; in experiment [2]; in the experiment with Phytophthora infestans; in the experiment on Plasmopara viticola) was at least 80% each time.

As for `CO/C=C(\Oc1cc(C2CCC(C)(C)CC2)ccc1C)C(=O)OC` [E.2, methyl (Z)-2-[5-(4,4-dimethylcyclohexyl)-2-methyl-phenoxy]-3-methoxy-prop-2-enoate], the inhibition of growth at 20 ppm in the experiment on Mycosphaerella arachidis and in the experiment with Monographella nivalis was at least 80% each time. The pest or weed control at 200 ppm (in [1]; in experiment [2]; in the experiment with Phytophthora infestans; in the experiment on Plasmopara viticola) was at least 80% throughout.

As to `CO/C=C(\Oc1cc(C2CCCC2)ccc1C)C(=O)OC` [E.13, methyl (Z)-2-(5-cyclopentyl-2-methyl-phenoxy)-3-methoxy-prop-2-enoate], the inhibition of growth at 20 ppm in the experiment with Mycosphaerella arachidis, in the experiment with Glomerella lagenarium and with Monographella nivalis was at least 80% each time. The pest or weed control at 60 ppm with Phakopsora pachyrhizi [4] was at least 70%. The pest or weed control at 200 ppm (in the experiment on Pyricularia oryzae; in the experiment on Alternaria solani; in experiment [1]; in [2]; in the experiment with Phytophthora infestans; with Plasmopara viticola) was at least 80% each time. In experiment [3], the pest or weed control at 200 ppm is at least 80%. The “control (%) Puccinia recondita (Brown rust), curative” value in the experiment on Puccinia recondita (20 ppm) worked out at 0%; with Puccinia recondita (60 ppm) it was 0%; with Puccinia recondita (200 ppm) it was 100%. Further, the “control (%) Phakopsora pachyrhizi (Soybean rust)” value with Phakopsora pachyrhizi [5] (6 ppm) is listed as 0%; with Phakopsora pachyrhizi [5] (20 ppm), 4%; in the experiment with Phakopsora pachyrhizi [5] (60 ppm), 46%; in the experiment with Phakopsora pachyrhizi [5] (200 ppm), 98%; in the experiment with Phakopsora pachyrhizi [6] (0.6 ppm), 10%; with Phakopsora pachyrhizi [6] (2 ppm), 10%. The “control (%) Phakopsora pachyrhizi (Soybean rust)” value was 60% in the experiment on Phakopsora pachyrhizi [6] (6 ppm), 100% in the experiment on Phakopsora pachyrhizi [6] (20 ppm), 100% with Phakopsora pachyrhizi [6] (60 ppm) and 100% in the experiment with Phakopsora pachyrhizi [6] (200 ppm).
